From patent US12221426B2, “Inhibitory material against human body-derived nicotinamide adenine dinucleotide phosphate-dependent steroid dehydrogenase-like, and anticancer agent comprising same as effective ingredient or pharmaceutical composition comprising same as effective ingredient for treatment of hyperlipidemia” (SEOUL NATIONAL UNIVERSITY R&DB FOUNDATION, priority 2018, dated 2025) come the findings set out here.

Each structure is given as a SMILES string.

Sequence of Human-derived nicotinamide adenine dinucleotide phosphate-dependent steroid dehydrogenase (NSDHL) (Q15738 whole entry): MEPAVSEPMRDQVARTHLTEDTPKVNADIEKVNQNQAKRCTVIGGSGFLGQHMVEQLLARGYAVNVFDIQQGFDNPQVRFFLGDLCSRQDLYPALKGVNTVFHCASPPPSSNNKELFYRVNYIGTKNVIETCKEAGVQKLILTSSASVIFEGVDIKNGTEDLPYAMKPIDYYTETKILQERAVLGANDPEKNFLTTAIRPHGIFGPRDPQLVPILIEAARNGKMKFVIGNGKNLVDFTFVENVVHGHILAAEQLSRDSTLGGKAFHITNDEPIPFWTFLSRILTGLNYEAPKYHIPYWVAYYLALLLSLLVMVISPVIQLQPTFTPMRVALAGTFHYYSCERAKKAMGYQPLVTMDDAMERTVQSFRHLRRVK

The assay has as its target Human-derived nicotinamide adenine dinucleotide phosphate-dependent steroid dehydrogenase (NSDHL) (Homo sapiens (Human), UniProt Q15738). The experiment in a line: NSDHL inhibitory activity evaluation: decrease of NADH fluorescence amplification when inhibitor releases NADH from NSDHL. It is filed as binding. Particulars: recombinant NSDHL (16 μM, 50 μl) + NADH (50 μM, 50 μl), room temperature 10 min, Ex 340 nm/Em 460 nm, 96-well plate. Here is the method: In order to evaluate the nicotinamide adenine dinucleotide phosphate-dependent steroid dehydrogenase (NSDHL) inhibitory activity of the compound provided in one aspect of the present invention, the following experiment was performed.
Human-derived nicotinamide adenine dinucleotide phosphate-dependent steroid dehydrogenase (NADP-dependent steroid dehydrogenase-like; NSDHL) was expressed in large quantities in E. coli. The NSDHL gene was inserted into pET21a plasmid, which was cloned into E. coli C41 (DE3). After culturing E. coli in Luria Broth medium at 37° C., IPTG was added thereto at the time when OD600 was about 0.7 to express NSDHL, followed by culture at 37° C. for 4 hours.
The cultured E. coli was centrifuged, and the cells were stored at −80° C. The cells were crushed by sonification, which was first purified using IMAC (Immobilized metallo-affinity chromatography), and then finally purified using SEC (Size exclusion chromatography). The composition of the buffer solution for storing NSDHL was as follows: 40 mM HEPES (pH 8.0), 150 mM NaCl, and 0.5 mM TCEP.
When dehydrogenase binds to NADH, fluorescence intensity is amplified compared to NADH alone. In other words, if the dehydrogenase, NSDHL, is treated with an inhibitor in a state in which it is bound to NADH, the fluorescence intensity will be reduced because NADH is released. FIG. 1 is a graph showing the results of measuring the fluorescence intensity of NADH according to the concentration of NSDHL.
In addition, it was also confirmed in FIG. 2 that an experiment for inhibiting was possible using NAD+, which is an oxidized form of NADH, but is not measured in the fluorescence measurement range of NADH. FIG. 2 is a graph showing the results of an experiment for inhibiting NSDHL and NADH conjugate using NAD+.
An activity assay was performed using a 96-well plate, and an experiment was performed after adding an inhibitor to each well at the final concentrations of 200 μM≤1 μM. Particularly, 50 μl of 16 μM NSDHL, 50 mM HEPES, 20% glycerol were added to each well, and then 50 ul of 50 μM NADH was added to each well, followed by reaction at room temperature for 10 minutes. The fluorescence level of each well was measured using SpectraMax M5 (Molecular Devices) equipment (Ex: 340 nm, Em: 460 nm). The values were corrected by separately measuring the absorbance of the compound and the buffer solution, and the degree of inhibition of each compound against NSDHL was measured based on the NADH fluorescence at the same concentration without binding. IC50 (inhibitory concentration at 50%) was calculated using GraphPad Prism software.
Usually IC50 stands for the concentration that inhibits the measured activity by half. With `O=C(O)CN1C(=O)/C(=C/c2cc(-c3ccc(F)cc3)ccc2OCc2ccc(C(=O)O)cc2)SC1=S` [Example 1, (Z)-4-((3-((3-(carboxymethyl)-4-oxo-2-thioxothiazolidin-5-ylidene)methyl)-4′-fluorobiphenyl-4-yloxy)methyl)benzoic acid], the IC50 came out at 10.4 µM.
In the case of `O=C(O)CN1C(=O)/C(=C/c2cn(-c3ccc(F)cc3)nc2-c2cccc(Cl)c2)SC1=S` [Example 2, (Z)-2-(5-((3-(3-chlorophenyl)-1-(4-fluorophenyl)-1H-pyrazole-4-yl)methylene)-4-oxo-2-thioxothiazolidin-3-yl)acetic acid], the IC50 was determined as 12.8 µM.
With `COc1cccc(OCc2ccccc2)c1/C=C1\SC(=S)N(CC(=O)O)C1=O` [Example 3, (Z)-2-(5-(2-(benzyloxy)-6-methoxybenzylidene)-4-oxo-2-thioxothiazolidin-3-yl)acetic acid], the IC50 is 19.9 µM.
The result for `O=C(O)CN1C(=O)/C(=C/c2ccc(O)cc2OCc2ccccc2Br)SC1=S` [Example 4, (Z)-2-(5-(2-(2-bromobenzyloxy)-4-hydroxybenzylidene)-4-oxo-2-thioxothiazolidin-3-yl)acetic acid] reads 17.8 µM; that for `O=C(O)CN1C(=O)/C(=C/c2cc(Br)ccc2OCc2ccccc2I)SC1=S` [Example 5, (Z)-2-(5-(5-bromo-2-(2-iodobenzyloxy)benzylidene)-4-oxo-2-thioxothiazolidin-3-yl)acetic acid], 27.1 µM.
